Assays:
[1] = system: human B virus: B/Lee/40; assay type: binding, human influenza B virus
[2] = system: human A virus: A/Memphis/1/71/(H3N2); assay type: binding, human influenza A virus
[3] = system: avian A virus: A/duck/Hong Kong/24/76 (H3N2); assay type: binding, avian influenza A virus

Substance | recognition of the polymer with sialo-oligosaccharide by the human influenza B virus (absorbency at 492 nm) [1] | recognition of the polymer with sialo-oligosaccharide by the human influenza A virus (absorbency at 492 nm) [2] | recognition of the polymer with sialo-oligosaccharide by the avian influenza A virus (absorbency at 492 nm) [3]
Poly (Neu5Ac α2-3Gal β1-4GlcNAc β-pAP/α-PGA) | weak | weak | strongly recognizes
Poly (Neu5Ac α2-6Gal β1-4GlcNAc β-pAP/α-PGA) | strongly recognizes | strongly recognizes | weak

Reference: patent US20090269734A1, “METHOD FOR DETERMINATION OF RECOGNITION SPECIFICITY OF VIRUS FOR RECEPTOR SUGAR CHAIN” (priority 2005, published 2009)
